# Activity calls are given as the source filed them. No cut-off for these calls is given here.
# Assays:
# [1] = tested on: A549; assay: Reduction in intracellular GSH level in human A549 cells by measuring decrease in fluorescence signal at 10 uM incubated for 10 mins in presence of GSH scavenger NEM by fluorescence microscopic analysis; format: functional, cell-based
# [2] = Toxicity in BALB/c mouse xenografted with human A549 cells assessed as morphological change in lung at 80 mg/kg,IT(Intratumoral) administrated every four days for 16 days by hematoxylin and eosin staining based microscopic analysis; format: organism-based; conditions: in vivo, other, 384 h, time 16 day
# [3] = tested on: A549; assay: Antitumor activity against human A549 cells xenografted in BALB/c mouse assessed as upregulation of cleaved caspase-3 expression at 80 mg/kg,IT(Intratumoral) administrated every four days for 16 days by Western blotting analysis; format: functional, organism-based; conditions: time 16.0 day
# [4] = tested on: A549; assay: Antitumor activity against human A549 cells xenografted in BALB/c mouse assessed as downregulation of SMARCA2 expression at 80 mg/kg,IT(Intratumoral) administrated every four days for 16 days by immunohistochemistry analysis; format: functional, organism-based; conditions: time 16.0 day
# [5] = biological target: T1, von Hippel-Lindau disease tumor suppressor/SWI/SNF-related matrix-associated actin-dependent regulator of chromatin subfamily A member 2 (Homo sapiens) (UniProt P51531+P40337); assay: PROTAC activity at VHL/SMARCA2 in human 786-0 cells harboring mutated VHL assessed as induction of SMARCA2 degradation at 0.1 to 5 uM incubated for 8 hrs by Western blotting analysis; format: cell-based; conditions: dose 0.1-5 µM
# T1 sequence (P40337 whole entry, looked up): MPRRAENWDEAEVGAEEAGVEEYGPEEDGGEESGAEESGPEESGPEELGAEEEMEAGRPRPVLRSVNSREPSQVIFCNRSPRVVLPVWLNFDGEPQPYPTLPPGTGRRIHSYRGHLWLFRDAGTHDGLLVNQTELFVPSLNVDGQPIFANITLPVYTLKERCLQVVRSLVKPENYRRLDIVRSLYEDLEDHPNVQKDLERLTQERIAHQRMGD
# T1 sequence (P51531 whole entry, looked up): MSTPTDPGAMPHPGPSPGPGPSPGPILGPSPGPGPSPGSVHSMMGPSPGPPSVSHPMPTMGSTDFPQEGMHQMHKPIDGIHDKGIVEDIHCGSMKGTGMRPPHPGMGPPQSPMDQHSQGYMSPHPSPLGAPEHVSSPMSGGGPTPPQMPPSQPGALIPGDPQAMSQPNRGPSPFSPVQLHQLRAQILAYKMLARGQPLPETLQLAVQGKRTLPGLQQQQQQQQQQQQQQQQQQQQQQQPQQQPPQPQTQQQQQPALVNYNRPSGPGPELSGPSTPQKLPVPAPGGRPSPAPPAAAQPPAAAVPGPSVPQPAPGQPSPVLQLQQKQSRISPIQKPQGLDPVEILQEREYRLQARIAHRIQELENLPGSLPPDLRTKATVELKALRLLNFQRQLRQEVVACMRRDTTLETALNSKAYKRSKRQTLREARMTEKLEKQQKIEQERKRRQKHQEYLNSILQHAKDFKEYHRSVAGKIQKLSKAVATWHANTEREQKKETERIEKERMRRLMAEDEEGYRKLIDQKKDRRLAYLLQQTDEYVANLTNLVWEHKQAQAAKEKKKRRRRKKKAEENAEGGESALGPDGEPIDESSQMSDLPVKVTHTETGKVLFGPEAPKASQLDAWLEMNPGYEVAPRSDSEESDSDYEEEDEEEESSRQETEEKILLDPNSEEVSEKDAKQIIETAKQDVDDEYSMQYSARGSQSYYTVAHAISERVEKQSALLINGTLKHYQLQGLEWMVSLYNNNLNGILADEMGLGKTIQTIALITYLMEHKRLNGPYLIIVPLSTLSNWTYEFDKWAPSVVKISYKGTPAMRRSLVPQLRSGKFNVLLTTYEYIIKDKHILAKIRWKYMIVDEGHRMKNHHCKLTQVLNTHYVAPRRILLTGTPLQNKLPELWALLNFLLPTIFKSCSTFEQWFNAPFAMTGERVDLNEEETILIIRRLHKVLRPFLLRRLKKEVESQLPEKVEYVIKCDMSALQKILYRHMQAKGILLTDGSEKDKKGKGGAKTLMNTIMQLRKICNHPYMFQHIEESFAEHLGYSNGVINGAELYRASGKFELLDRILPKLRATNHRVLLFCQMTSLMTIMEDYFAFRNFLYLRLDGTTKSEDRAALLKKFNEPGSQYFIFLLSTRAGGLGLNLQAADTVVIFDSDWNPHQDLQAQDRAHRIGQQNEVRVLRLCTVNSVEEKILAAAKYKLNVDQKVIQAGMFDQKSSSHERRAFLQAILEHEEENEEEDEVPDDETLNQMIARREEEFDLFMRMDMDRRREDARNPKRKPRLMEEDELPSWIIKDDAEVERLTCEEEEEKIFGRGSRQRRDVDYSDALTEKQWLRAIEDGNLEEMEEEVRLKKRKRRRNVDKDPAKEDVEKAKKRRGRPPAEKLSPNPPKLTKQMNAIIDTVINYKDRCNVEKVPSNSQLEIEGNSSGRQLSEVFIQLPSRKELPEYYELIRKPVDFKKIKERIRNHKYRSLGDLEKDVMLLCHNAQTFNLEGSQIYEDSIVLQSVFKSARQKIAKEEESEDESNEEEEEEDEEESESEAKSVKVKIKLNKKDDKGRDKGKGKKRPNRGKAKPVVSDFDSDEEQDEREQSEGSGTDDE
# [6] = tested on: A549; assay: Antitumor activity against human A549 cells xenografted in BALB/c mouse assessed as reduction in tumor weight at 80 mg/kg,IT(Intratumoral) administrated every four days for 16 days; format: functional, organism-based; conditions: time 16.0 day
# [7] = Toxicity in BALB/c mouse xenografted with human A549 cells assessed as morphological change in heart at 80 mg/kg,IT(Intratumoral) administrated every four days for 16 days by hematoxylin and eosin staining based microscopic analysis; format: organism-based; conditions: in vivo, other, 384 h, time 16 day
# [8] = tested on: NCI-H1299; assay: Cytotoxicity against human NCI-H1299 cells assessed as inhibition of cell growth incubated for 3 days by MTT assay; format: functional, cell-based; conditions: NCI-H1299, 72 h
# [9] = tested on: A549; assay: Antitumor activity against human A549 cells xenografted in BALB/c mouse assessed as reduction in tumor volume at 80 mg/kg,IT(Intratumoral) administrated every four days for 16 days; format: functional, organism-based; conditions: time 16.0 day
# [10] = tested on: A549; assay: Antitumor activity against human A549 cells xenografted in BALB/c mouse assessed as upregulation of cleaved caspase-3 expression at 80 mg/kg,IT(Intratumoral) administrated every four days for 16 days by immunohistochemistry analysis; format: functional, organism-based; conditions: time 16.0 day
# [11] = biological target: T1, von Hippel-Lindau disease tumor suppressor/SWI/SNF-related matrix-associated actin-dependent regulator of chromatin subfamily A member 2 (Homo sapiens); assay: PROTAC activity at VHL/SMARCA2 in human A549 cells assessed as induction of SMARCA2 degradation at 1 uM incubated for 8 hrs in presence of GSH scavenger NEM by Western blotting analysis; format: cell-based
# [12] = tested on: A549; assay: Cytotoxicity against human A549 cells assessed as inhibition of cell growth incubated for 3 days by MTT assay; format: functional, cell-based; conditions: A549, 72 h
# [13] = biological target: T1, von Hippel-Lindau disease tumor suppressor/SWI/SNF-related matrix-associated actin-dependent regulator of chromatin subfamily A member 2 (Homo sapiens); assay: PROTAC activity at VHL/SMARCA2 in human A549 cells assessed as induction of SMARCA2 degradation at 1 uM pretreated with 2-(4-(3-Amino-6-(2-hydroxyphenyl)pyridazin-4-yl)piperazin-1-yl) acetic acid trifluoroacetate followed by compound addition and measured after 8 hrs by Western blotting analysis; format: cell-based
# [14] = Toxicity in BALB/c mouse xenografted with human A549 cells assessed as morphological change in spleen at 80 mg/kg,IT(Intratumoral) administrated every four days for 16 days by hematoxylin and eosin staining based microscopic analysis; format: organism-based; conditions: in vivo, other, 384 h, time 16 day
# [15] = biological target: T1, von Hippel-Lindau disease tumor suppressor/SWI/SNF-related matrix-associated actin-dependent regulator of chromatin subfamily A member 2 (Homo sapiens); assay: PROTAC activity at VHL/SMARCA2 in human A549 cells assessed as induction of SMARCA2 degradation at 1 uM pretreated with MLN4924 followed by compound addition and measured after 8 hrs by Western blotting analysis; format: cell-based
# [16] = tested on: A549; assay: Antitumor activity against human A549 cells xenografted in BALB/c mouse assessed as upregulation of gamma-H2AX expression at 80 mg/kg,IT(Intratumoral) administrated every four days for 16 days by immunohistochemistry analysis; format: functional, organism-based; conditions: time 16.0 day
# [17] = tested on: A549; assay: Antitumor activity against human A549 cells xenografted in BALB/c mouse assessed as upregulation of Ki67 expression at 80 mg/kg,IT(Intratumoral) administrated every four days for 16 days by immunohistochemistry analysis; format: functional, organism-based; conditions: time 16.0 day
# [18] = tested on: A549; assay: Inhibition of cell migration in human A549 cells at 10 uM incubated for 36 hrs by scratch wound healing based fluorescent microscopic analysis; format: functional
# [19] = biological target: T2, von Hippel-Lindau disease tumor suppressor/SWI/SNF-related matrix-associated actin-dependent regulator of chromatin subfamily A member 4 (Homo sapiens) (UniProt P51532+P40337); assay: PROTAC activity at VHL/SMARCA4 in human 786-0 cells harboring mutated VHL assessed as induction of SMARCA4 degradation at 0.1 to 5 uM incubated for 8 hrs by Western blotting analysis; format: cell-based; conditions: dose 0.1-5 µM
# T2 sequence (P40337 whole entry, looked up): as the sequence (P40337 whole entry, looked up) above
# T2 sequence (P51532 whole entry, looked up): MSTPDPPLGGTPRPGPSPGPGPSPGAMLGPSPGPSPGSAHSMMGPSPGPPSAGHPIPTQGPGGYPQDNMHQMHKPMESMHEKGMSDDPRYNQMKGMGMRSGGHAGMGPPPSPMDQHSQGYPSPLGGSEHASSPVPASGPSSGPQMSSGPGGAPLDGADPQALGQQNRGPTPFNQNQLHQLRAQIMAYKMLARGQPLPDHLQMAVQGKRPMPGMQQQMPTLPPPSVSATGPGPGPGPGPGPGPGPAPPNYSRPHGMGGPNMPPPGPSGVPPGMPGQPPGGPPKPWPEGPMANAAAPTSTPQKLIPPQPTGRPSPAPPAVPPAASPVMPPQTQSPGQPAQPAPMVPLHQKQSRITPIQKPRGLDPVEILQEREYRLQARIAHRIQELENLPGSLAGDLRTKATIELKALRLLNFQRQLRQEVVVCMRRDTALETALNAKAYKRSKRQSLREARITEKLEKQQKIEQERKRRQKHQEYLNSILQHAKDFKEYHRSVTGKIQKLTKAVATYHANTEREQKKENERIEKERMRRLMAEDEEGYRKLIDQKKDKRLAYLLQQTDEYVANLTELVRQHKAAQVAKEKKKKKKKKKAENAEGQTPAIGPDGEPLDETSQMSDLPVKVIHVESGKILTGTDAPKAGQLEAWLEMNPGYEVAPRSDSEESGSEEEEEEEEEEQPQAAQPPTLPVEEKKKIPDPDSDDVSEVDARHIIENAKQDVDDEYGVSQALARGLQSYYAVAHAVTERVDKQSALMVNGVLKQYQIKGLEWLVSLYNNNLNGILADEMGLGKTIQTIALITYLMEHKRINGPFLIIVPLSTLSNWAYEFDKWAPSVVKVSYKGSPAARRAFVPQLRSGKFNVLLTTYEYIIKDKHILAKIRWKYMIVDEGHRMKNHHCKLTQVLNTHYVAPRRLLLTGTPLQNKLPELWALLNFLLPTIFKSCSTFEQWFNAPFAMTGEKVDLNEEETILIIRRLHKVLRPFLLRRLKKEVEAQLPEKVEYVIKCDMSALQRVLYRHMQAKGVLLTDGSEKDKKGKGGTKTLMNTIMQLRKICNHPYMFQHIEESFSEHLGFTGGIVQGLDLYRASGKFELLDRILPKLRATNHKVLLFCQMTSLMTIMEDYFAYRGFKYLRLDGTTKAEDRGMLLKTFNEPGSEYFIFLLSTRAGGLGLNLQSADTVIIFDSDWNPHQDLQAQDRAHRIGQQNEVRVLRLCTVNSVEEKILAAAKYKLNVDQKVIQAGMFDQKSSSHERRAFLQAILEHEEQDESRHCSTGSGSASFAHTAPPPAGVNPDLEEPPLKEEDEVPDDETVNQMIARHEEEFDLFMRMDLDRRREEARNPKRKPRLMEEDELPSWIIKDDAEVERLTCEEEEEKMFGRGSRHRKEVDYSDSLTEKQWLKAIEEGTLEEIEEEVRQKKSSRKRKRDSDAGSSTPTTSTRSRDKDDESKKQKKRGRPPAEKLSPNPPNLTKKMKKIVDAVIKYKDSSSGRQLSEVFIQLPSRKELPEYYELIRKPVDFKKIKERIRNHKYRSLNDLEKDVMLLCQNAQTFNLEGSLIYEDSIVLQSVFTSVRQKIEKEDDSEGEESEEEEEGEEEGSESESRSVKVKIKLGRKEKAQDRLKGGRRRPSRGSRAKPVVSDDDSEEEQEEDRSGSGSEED
# [20] = tested on: A549; assay: Inhibition of colony formation in human A549 cells assessed as reduction in colony size at 0.8 to 20 uM incubated for 13 days by crystal violet staining based analysis; format: functional, cell-based; conditions: dose 0.8-20 µM, time 13.0 day
# [21] = biological target: T2, von Hippel-Lindau disease tumor suppressor/SWI/SNF-related matrix-associated actin-dependent regulator of chromatin subfamily A member 4 (Homo sapiens); assay: PROTAC activity at VHL/SMARCA4 in human HEK-293T cells assessed as induction of SMARCA4 degradation at 1 uM incubated for 24 hrs by Western blotting analysis relative to control; format: cell-based
# [22] = Toxicity in BALB/c mouse xenografted with human A549 cells assessed as change in body weight at 80 mg/kg,IT(Intratumoral) administrated every four days for 16 days; format: organism-based; conditions: in vivo, other, 384 h, time 16 day
# [23] = tested on: HuLEC-5a; assay: Inhibition of colony formation in human HuLEC-5a cells assessed as reduction in colony size at 0.8 to 20 uM incubated for 13 days by crystal violet staining based analysis; format: functional, cell-based; conditions: dose 0.8-20 µM, time 13.0 day
# [24] = tested on: A549; assay: Antitumor activity against human A549 cells xenografted in BALB/c mouse assessed as reduction in tumor size at 80 mg/kg,IT(Intratumoral) administrated every four days for 16 days; format: functional, organism-based; conditions: time 16.0 day
# [25] = Stability in mouse plasma at 10 uM incubated for 24 hrs by HPLC analysis; format: ADME, cell-free
# [26] = biological target: T1, von Hippel-Lindau disease tumor suppressor/SWI/SNF-related matrix-associated actin-dependent regulator of chromatin subfamily A member 2 (Homo sapiens); assay: PROTAC activity at VHL/SMARCA2 in human A549 cells harboring shRNA mediated VHL knockdown assessed as induction of SMARCA2 degradation at 0.1 to 2 uM incubated for 8 hrs by Western blotting analysis; format: cell-based; conditions: dose 0.1-2 µM
# [27] = Toxicity in BALB/c mouse xenografted with human A549 cells assessed as morphological change in kidney at 80 mg/kg,IT(Intratumoral) administrated every four days for 16 days by hematoxylin and eosin staining based microscopic analysis; format: organism-based; conditions: in vivo, other, 384 h, time 16 day
# [28] = biological target: T1, von Hippel-Lindau disease tumor suppressor/SWI/SNF-related matrix-associated actin-dependent regulator of chromatin subfamily A member 2 (Homo sapiens); assay: PROTAC activity at VHL/SMARCA2 in human A549 cells assessed as induction of SMARCA2 degradation at 1 uM by Western blotting analysis; format: cell-based; conditions: TDE = time-dependent effect
# [29] = biological target: T1, von Hippel-Lindau disease tumor suppressor/SWI/SNF-related matrix-associated actin-dependent regulator of chromatin subfamily A member 2 (Homo sapiens); assay: PROTAC activity at VHL/SMARCA2 in human A549 cells assessed as induction of SMARCA2 degradation at 1 uM pretreated with MG132 followed by compound addition and measured after 8 hrs by Western blotting analysis; format: cell-based
# [30] = tested on: HuLEC-5a; assay: Inhibition of colony formation in human HuLEC-5a cells assessed as reduction in colony number at 0.8 to 20 uM incubated for 13 days by crystal violet staining based analysis; format: functional, cell-based; conditions: dose 0.8-20 µM, time 13.0 day
# [31] = biological target: T1, von Hippel-Lindau disease tumor suppressor/SWI/SNF-related matrix-associated actin-dependent regulator of chromatin subfamily A member 2 (Homo sapiens); assay: PROTAC activity at VHL/SMARCA2 in human NCI-H1299 cells assessed as induction of SMARCA2 degradation at 1 uM by Western blotting analysis; format: cell-based; conditions: TDE = time-dependent effect
# [32] = tested on: A549; assay: Antitumor activity against human A549 cells xenografted in BALB/c mouse assessed as downregulation of SMARCA2 expression at 80 mg/kg,IT(Intratumoral) administrated every four days for 16 days by Western blotting analysis; format: functional, organism-based; conditions: time 16.0 day
# [33] = tested on: A549; assay: Inhibition of colony formation in human A549 cells assessed as reduction in colony number at 0.8 to 20 uM incubated for 13 days by crystal violet staining based analysis; format: functional, cell-based; conditions: dose 0.8-20 µM, time 13.0 day
# [34] = biological target: T1, von Hippel-Lindau disease tumor suppressor/SWI/SNF-related matrix-associated actin-dependent regulator of chromatin subfamily A member 2 (Homo sapiens); assay: PROTAC activity at VHL/SMARCA2 in human NCI-H1299 cells harboring shRNA mediated VHL knockdown assessed as induction of SMARCA2 degradation at 0.1 to 2 uM incubated for 8 hrs by Western blotting analysis; format: cell-based; conditions: dose 0.1-2 µM
# [35] = Stability of the compound in cell culture medium containing 10% fetal bovine serum at 50 uM incubated for 72 hrs by HPLC analysis; format: physicochemical, cell-free; conditions: cattle
# [36] = biological target: T1, von Hippel-Lindau disease tumor suppressor/SWI/SNF-related matrix-associated actin-dependent regulator of chromatin subfamily A member 2 (Homo sapiens); assay: PROTAC activity at VHL/SMARCA2 in human A549 cells assessed as induction of SMARCA2 degradation at 1 uM pretreated with VHL-ligand followed by compound addition and measured after 8 hrs by Western blotting analysis; format: cell-based
# [37] = biological target: T1, von Hippel-Lindau disease tumor suppressor/SWI/SNF-related matrix-associated actin-dependent regulator of chromatin subfamily A member 2 (Homo sapiens); assay: PROTAC activity at VHL/SMARCA2 in human HEK-293T cells assessed as induction of SMARCA2 degradation at 1 uM incubated for 24 hrs by Western blotting analysis relative to control; format: cell-based
# [38] = biological target: T1, von Hippel-Lindau disease tumor suppressor/SWI/SNF-related matrix-associated actin-dependent regulator of chromatin subfamily A member 2 (Homo sapiens); assay: PROTAC activity at VHL/SMARCA2 in human A549 cells assessed as induction of SMARCA2 degradation at 1 uM incubated for 24 hrs by Western blotting analysis; format: cell-based
# [39] = Toxicity in BALB/c mouse xenografted with human A549 cells assessed as morphological change in liver at 80 mg/kg,IT(Intratumoral) administrated every four days for 16 days by hematoxylin and eosin staining based microscopic analysis; format: organism-based; conditions: in vivo, other, 384 h, time 16 day
smiles,measurement,setting,value
CCN(CCN1C(=O)C=CC1=O)c1ccc2c(C)cc(=O)oc2c1,Activity,[1],Active
Cc1ncsc1-c1ccc(CNC(=O)[C@@H]2C[C@@H](O)CN2C(=O)[C@@H](NC(=O)CN2CCN(c3cc(-c4ccccc4OS(=O)(=O)c4ccc([N+](=O)[O-])cc4)nnc3N)CC2)C(C)(C)C)cc1,Activity,[2],Non-Toxic
same,Activity,[3],Active
same,Activity,[4],Active
same,Activity,[5],inactive
same,Activity,[6],Active
same,Activity,[7],Non-Toxic
same,IC50,[8],21.8 µM
same,Activity,[9],Active
same,Activity,[10],Active
same,Activity,[11],inactive
same,IC50,[12],9.1 µM
same,Activity,[13],inactive
same,Activity,[14],Non-Toxic
same,Activity,[15],inactive
same,Activity,[16],Active
same,Activity,[17],Active
same,inhibition,[18],Active
same,Activity,[19],inactive
same,inhibition,[20],Active
same,Activity,[21],inactive
same,Activity,[22],Non-Toxic
same,inhibition,[23],inactive
same,Activity,[24],Active
same,Stability,[25],Stable
same,Activity,[26],inactive
same,Activity,[27],Non-Toxic
same,Activity,[28],Tde
same,Activity,[29],inactive
same,inhibition,[30],inactive
same,Activity,[31],Tde
same,Activity,[32],Active
same,inhibition,[33],Active
same,Activity,[34],inactive
same,Stability,[35],Stable
same,Activity,[36],inactive
same,Activity,[37],inactive
same,Activity,[38],Active
same,Activity,[39],Non-Toxic
